“And” between values parts separate entries of the source, which are not always exact repeats. Identical values can stand only once. “Also recorded” adds a separate entry of the source.
Columns and labels:
Serotonin-uptake = Serotonin-uptake (Homo sapiens, UniProt P31645); test: Novascreen serotonin-uptake assay, with reference to imipramine HCl; type: biochemical; conditions: for serotonin-uptake inhibition (in words): FIGS. 1 to 4, comparison with imipramine HCl
Excerpt: FIG. 2 is a graph for a serotonin-uptake assay of a whole plant extract of a plant from the family Mesembryanthemaceae, identified by the code number 18639, as well as some comparisons with the known serotonin-uptake inhibitor imipramine HCl;
FIG. 3 is a graph for a serotonin-uptake assay for mesembranol, identified by the code number 18623, as well as some comparisons with the known serotonin-uptake inhibitor imipramine HCl; and
FIG. 4 is a graph for a serotonin-uptake assay for mesembranone, identified by the code number 18622, as well as some comparisons with the known serotonin-uptake inhibitor imipramine HCl.
In addition, the whole plant extract of Sceletium N.E.Br., mesembranol and mesembranone were screened for biological activity by the National Institute of Mental Health in the United States of America through the contract with Novascreen.

GABA B = test: Novascreen GABA B receptor screen; type: binding; conditions: Average: N = 2; Concentration 5,0E1
healthy adult volunteers = test: Study 2: single sublingual dose of pure (-)-mesembrine in healthy adult volunteers; type: in vivo; conditions: single 200 microgram sublingual dose in 1 ml of 60% ethanol
Experimental: Various […] studies of the effects of the compounds of the invention were carried out in adult volunteers as follows:
Study 2. N=2 Healthy Adult Volunteers, All Health Professionals Sep. 21, 1996.

Serotonin-uptake, sequence (P31645 whole entry): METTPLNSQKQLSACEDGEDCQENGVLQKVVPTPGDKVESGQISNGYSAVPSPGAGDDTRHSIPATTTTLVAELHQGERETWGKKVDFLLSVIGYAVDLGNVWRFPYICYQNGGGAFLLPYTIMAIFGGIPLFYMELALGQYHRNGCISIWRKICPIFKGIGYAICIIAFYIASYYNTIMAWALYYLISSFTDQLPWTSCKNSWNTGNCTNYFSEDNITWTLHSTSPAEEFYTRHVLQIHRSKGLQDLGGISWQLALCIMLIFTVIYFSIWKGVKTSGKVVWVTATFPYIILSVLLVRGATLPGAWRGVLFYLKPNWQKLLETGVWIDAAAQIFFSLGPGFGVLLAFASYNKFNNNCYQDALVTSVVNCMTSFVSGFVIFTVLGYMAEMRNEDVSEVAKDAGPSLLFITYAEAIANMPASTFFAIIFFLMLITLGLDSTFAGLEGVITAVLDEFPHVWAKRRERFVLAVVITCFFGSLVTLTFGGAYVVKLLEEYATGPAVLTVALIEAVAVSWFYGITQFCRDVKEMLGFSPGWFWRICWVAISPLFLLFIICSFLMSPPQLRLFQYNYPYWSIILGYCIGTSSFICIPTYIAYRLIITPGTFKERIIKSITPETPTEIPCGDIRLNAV

SMILES | serotonin-uptake inhibition (in words) (Serotonin-uptake) | Percent Inhibition, Serotonin-uptake (Serotonin-uptake; Average: N = 2, Concentration 5,0E1) | Percent Inhibition, GABA B (GABA B) | Anxiolytic effect (healthy adult volunteers; N=2) | Duration of anxiolytic action (healthy adult volunteers; N=2) | Sustained elevation of mood (healthy adult volunteers; N=2) | Duration of sustained elevation of mood (healthy adult volunteers; N=2, individual volunteers) | Onset of action (healthy adult volunteers; N=2, individual volunteers)
COc1ccc(C23CCC(O)CC2N(C)CC3)cc1OC (stereo not shown) [mesembranol] | highly potent serotonin-uptake inhibitors |  |  |  |  |  |  | 
COc1ccc(C23CCC(=O)CC2N(C)CC3)cc1OC (single isomer, unassigned; (-)) [(-)-mesembrine, 3a-(3,4-dimethoxyphenyl)-octahydro-1-methyl-6H-indol-6-one] | highly potent serotonin-uptake inhibitor | 96,5% | -0,6% | noted by both | five hours to eight hours | noted by both | approximately eight; also recorded: eleven | 7 min and 12 min
COc1ccc(C23C=CC(=O)CC2N(C)CC3)cc1OC (stereo not shown) [mesembranone] | highly potent serotonin-uptake inhibitors |  |  |  |  |  |  | 

From US6288104A, “Pharmaceutical compositions containing mesembrine and related compounds” (African Natural Health CC, priority 1996, dated 2001)
